Source: patent US8552205B2, “Derivatives of 6,7-dihydro-5H-imidazo[1,2-alpha]imidazole-3-carboxylic acid amides” (Boehringer Ingelheim International GmbH, priority 2007, dated 2013)

How the values were obtained:
[1] = tested on: IL-2 production in human whole blood stimulated with staphylococcal enterotoxin B; format: cell-based
[2] = molecular target: T1, LFA-1 (CD18/CD11a) binding to ICAM-1 (Homo sapiens, UniProt P05107+P20701); test: Assay to determine inhibition of LFA-1 binding to ICAM-1; conditions: immunopurified LFA-1 binding to plate-bound sICAM-1; read-out: LFA/ICAM1 Kd
T1 construct: LFA-1 is immunopurified using the TS2/4 antibody from a 20 g pellet of human JY or SKW3 cells; endogenous in cells; sICAM-1 made in house, secreted from transfected CHO DUX cells
Text: Assay to Determine Inhibition of LFA-1 Binding to ICAM-1
This assay protocol is designed to study the direct antagonism, by a test compound, of the interaction of ICAM-1 with the Leukointegrin CD18/CD11a (LFA-1).
LFA-1 is immunopurified using the TS2/4 antibody from a 20 g pellet of human JY or SKW3 cells, utilizing a protocol previously described (Dustin, M. J.; et al., J. Immunol. 1992, 148, 2654-2660). The LFA-1 is purified from SKW3 lysates by immunoaffinity chromatography on TS2/4 LFA-1 mAb Sepharose and eluted at pH 11.5 in the presence of 2 mM MgCl2 and 1% octylglucoside. After collection and neutralization of fractions from the TS2/4 column, samples are pooled and precleared with Protein G agarose.
A soluble form of ICAM-1 is constructed, expressed, purified and characterized as previously described (Marlin, S.; et al., Nature, 1990, 344, 70-72 and see Arruda, A.; et al., Antimicrob. Agents Chemother. 1992, 36, 1186-1192). Briefly, isoleucine 454 which is located at the putative boundary between domain 5 of the ectodomain and the transmembrane domain, is changed to a stop codon using standard oligonucleotide-directed mutagenesis. This construction yields a molecule identical with the first 453 amino acids of membrane bound ICAM-1. An expression vector is created with a hamster dihydrofolate reductase gene, a neomycin-resistance marker, and the coding region of the sICAM-1 construct described above, along with the promoter, splice signals, and polyadenylation signal of the SV40 early region. The recombinant plasmid is transfected into CHO DUX cells using standard calcium phosphate methods. Cells are passaged in selective media (G418) and colonies secreting sICAM-1 are amplified using methotrexate. sICAM-1 is purified from serum-free media using traditional non-affinity chromatographic techniques, including ion exchange and size exclusion chromatography.
LFA-1 binding to ICAM-1 is monitored by first incubating sICAM-1 at 40 μg/mL in Dulbecco's phosphate buffered saline with calcium and magnesium, additional 2 mM MgCl2 and 0.1 mM PMSF (Diluting Buffer) in a 96-well plate for 30 min at room temperature. Plates are then blocked by the addition of 2% (w/v) bovine serum albumin in Diluting Buffer for 37° C. for 1 h. Blocking solution is removed from wells, and test compounds are diluted and then added followed by the addition of approximately 25 ng of immunoaffinity purified LFA-1. The LFA-1 is incubated in the presence of test compound and ICAM-1 at 37° C. for 1 h. Wells are washed 3 times with Diluting Buffer. The bound LFA-1 is detected by the addition of a polyclonal antibody directed against a peptide corresponding to the CD18 cytoplasmic tail in a 1:100 dilution with Diluting Buffer and 1% BSA and allowed to incubate for 45 min at 37° C. Wells are washed 3 times with Diluting Buffer and the bound polyclonal antibody is detected by the addition of a 1:4000 dilution of horse radish peroxidase conjugated to goat immunoglobulin directed against rabbit immunoglobulin. This reagent is allowed to incubate for 20 min at 37° C., wells are washed as above and the substrate for the horse radish peroxidase is added to each well to develop a quantitative colorimetric signal proportional to the amount of LFA-1 bound to sICAM-1. Soluble ICAM-1 (60 μg/mL) is used as a positive control for inhibition of the LFA-1/ICAM-1 interaction. The lack of the addition of LFA-1 to the binding assay is used as a background control for all samples. A dose-response curve is obtained for all test compounds.

T1 sequence (P20701 26-1170): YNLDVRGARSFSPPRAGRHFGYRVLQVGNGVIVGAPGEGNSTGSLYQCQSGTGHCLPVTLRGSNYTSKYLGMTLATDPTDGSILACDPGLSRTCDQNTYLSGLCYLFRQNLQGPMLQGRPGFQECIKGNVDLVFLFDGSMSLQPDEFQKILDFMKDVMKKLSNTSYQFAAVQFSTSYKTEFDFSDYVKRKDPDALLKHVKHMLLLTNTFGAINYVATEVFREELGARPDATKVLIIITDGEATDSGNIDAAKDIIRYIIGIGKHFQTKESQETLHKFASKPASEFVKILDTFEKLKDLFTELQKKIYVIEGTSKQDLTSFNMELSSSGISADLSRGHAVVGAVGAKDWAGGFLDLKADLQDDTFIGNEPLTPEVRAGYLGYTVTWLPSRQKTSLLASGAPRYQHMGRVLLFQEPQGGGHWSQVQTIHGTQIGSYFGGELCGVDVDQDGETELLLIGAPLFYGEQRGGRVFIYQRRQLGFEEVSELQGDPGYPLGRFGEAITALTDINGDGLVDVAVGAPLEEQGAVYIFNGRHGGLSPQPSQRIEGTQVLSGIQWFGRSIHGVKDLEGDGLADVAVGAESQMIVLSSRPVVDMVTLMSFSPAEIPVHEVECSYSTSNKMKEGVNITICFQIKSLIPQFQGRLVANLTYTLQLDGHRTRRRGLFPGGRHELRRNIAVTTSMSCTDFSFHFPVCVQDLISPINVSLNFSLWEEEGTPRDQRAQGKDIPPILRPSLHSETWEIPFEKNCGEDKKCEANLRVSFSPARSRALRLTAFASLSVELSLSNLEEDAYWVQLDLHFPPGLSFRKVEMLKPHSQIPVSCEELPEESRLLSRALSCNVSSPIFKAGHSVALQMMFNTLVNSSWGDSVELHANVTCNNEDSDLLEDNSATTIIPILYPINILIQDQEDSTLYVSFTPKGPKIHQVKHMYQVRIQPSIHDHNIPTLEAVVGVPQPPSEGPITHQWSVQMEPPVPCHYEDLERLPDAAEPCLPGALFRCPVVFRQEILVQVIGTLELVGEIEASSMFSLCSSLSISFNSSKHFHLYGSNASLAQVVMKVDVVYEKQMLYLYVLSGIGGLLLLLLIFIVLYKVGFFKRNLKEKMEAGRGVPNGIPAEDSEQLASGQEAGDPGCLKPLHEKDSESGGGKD
T1 sequence (P05107 23-769): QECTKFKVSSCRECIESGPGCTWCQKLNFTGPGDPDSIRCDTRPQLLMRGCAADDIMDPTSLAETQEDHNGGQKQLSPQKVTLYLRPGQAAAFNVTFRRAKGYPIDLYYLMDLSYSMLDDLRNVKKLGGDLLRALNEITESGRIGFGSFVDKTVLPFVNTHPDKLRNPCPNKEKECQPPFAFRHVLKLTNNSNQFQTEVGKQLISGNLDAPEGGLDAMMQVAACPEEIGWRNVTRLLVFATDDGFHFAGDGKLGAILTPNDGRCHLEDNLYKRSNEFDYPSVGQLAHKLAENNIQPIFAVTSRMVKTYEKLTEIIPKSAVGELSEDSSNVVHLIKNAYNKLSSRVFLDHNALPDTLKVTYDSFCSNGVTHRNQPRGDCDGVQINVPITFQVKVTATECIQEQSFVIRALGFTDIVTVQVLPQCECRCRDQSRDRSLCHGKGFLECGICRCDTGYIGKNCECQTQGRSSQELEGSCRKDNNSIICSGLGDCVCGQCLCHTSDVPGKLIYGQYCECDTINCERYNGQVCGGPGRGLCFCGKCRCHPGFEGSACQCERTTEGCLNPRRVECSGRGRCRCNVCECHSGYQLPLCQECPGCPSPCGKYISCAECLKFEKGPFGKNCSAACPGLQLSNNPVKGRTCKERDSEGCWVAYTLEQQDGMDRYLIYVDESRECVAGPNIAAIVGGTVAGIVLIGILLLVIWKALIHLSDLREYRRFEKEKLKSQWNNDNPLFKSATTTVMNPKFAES

| Compound | WB [1] | Kd [2] |
| --- | --- | --- |
| C[C@@]1(Cc2ccc(C#N)cc2)C(=O)N(c2cc(Cl)cc(Cl)c2)c2ncc(C(=O)NC3(C(=O)NC4(c5nnc(C6CC6)[nH]5)CC4)CC3)n21 [BI00659245, (R)-5-(4-Cyano-benzyl)-7-(3,5-dichloro-phenyl)-5-methyl-6-oxo-6,7-dihydro-5H-imidazo[1,2-a]imidazole-3-carboxylic acid {1-[1-(5-cyclopropyl-4H-1,2,4-triazol-3-yl)-cyclopropylcarbamoyl]-cyclopropyl}-amide] | 12 × | – |
| C[C@H](NC(=O)c1cnc2n1[C@](C)(Cc1ccc(C#N)cc1)C(=O)N2c1cc(Cl)cc(Cl)c1)C(=O)N[C@H](C)c1ccccn1 [Compound 2] | – | 8.9 nM |
| C[C@@]1(Cc2ccc(C#N)cc2)C(=O)N(c2cc(Cl)cc(Cl)c2)c2ncc(C(=O)NC3(C(=O)N4CC[C@@H](c5noc(=O)[nH]5)C4)CC3)n21 [Compound 9] | – | 4.6 nM |
| CC(=O)N[C@H]1CCN(C(=O)C2(NC(=O)c3cnc4n3[C@](C)(Cc3ccc(C#N)cc3)C(=O)N4c3cc(Cl)cc(Cl)c3)CC2)C1 [Compound 12] | – | 5.4 nM |
| C[C@H](NC(=O)c1cnc2n1[C@](C)(Cc1ccc(C#N)cc1)C(=O)N2c1cc(Cl)cc(Cl)c1)C(=O)N1CCC[C@@H](C(N)=O)C1 [Compound 13] | – | 2.4 nM |
| C[C@H](NC(=O)c1cnc2n1[C@](C)(Cc1ccc(C#N)cc1)C(=O)N2c1cc(Cl)c(F)c(Cl)c1)C(=O)NC1(c2ccccn2)CC1 [Compound 55] | – | 10 nM |
| C[C@@]1(Cc2ccc(C#N)cc2)C(=O)N(c2cc(Cl)c(F)c(Cl)c2)c2ncc(C(=O)NC3(C(=O)NC4(c5nccs5)CC4)CC3)n21 [Compound 60] | – | 13 nM |
| C[C@@]1(Cc2ccc(C#N)cc2)C(=O)N(c2cc(Cl)c(F)c(Cl)c2)c2ncc(C(=O)NC3(C(=O)NC4(c5nnc[nH]5)CC4)CC3)n21 [Compound 62] | – | 7 nM |
| C[C@@]1(Cc2ccc(C#N)cc2)C(=O)N(c2cc(Cl)cc(Cl)c2)c2ncc(C(=O)NC3(C(=O)NC4(C(N)=O)CC4)CC3)n21 [Compound 72] | – | 8.4 nM |
| C[C@@]1(Cc2ccc(C#N)cc2)C(=O)N(c2cc(Cl)cc(Cl)c2)c2ncc(C(=O)NC3(C(=O)N[C@@H]4CC[C@H](C(N)=O)C4)CC3)n21 [Compound 105] | – | 24 nM |
| C[C@@H](NC(=O)c1cnc2n1[C@](C)(Cc1ccc(C#N)cc1)C(=O)N2c1cc(Cl)cc(Cl)c1)C(=O)NC1(C(=O)O)CC1 [Compound 107] | – | 28 nM |
| COC(=O)[C@H]1CC[C@@H](NC(=O)C2(NC(=O)c3cnc4n3[C@](C)(Cc3ccc(C#N)cc3)C(=O)N4c3cc(Cl)cc(Cl)c3)CC2)C1 [Compound 109] | – | 28 nM |
| C[C@H](NC(=O)c1cnc2n1[C@](C)(Cc1ccc(C#N)cc1)C(=O)N2c1cc(Cl)cc(Cl)c1)C(=O)NC1CCC[C@H]1C(N)=O (stereo partly shown) [Compound 114] | – | 32 nM |
| C[C@@H](NC(=O)c1cnc2n1[C@](C)(Cc1ccc(C#N)cc1)C(=O)N2c1cc(Cl)cc(Cl)c1)C(=O)Nc1ccnn1C [Compound 129] | – | 45 nM |
| CC(=O)N1CCC(NC(=O)C2(NC(=O)c3cnc4n3[C@](C)(Cc3ccc(C#N)cc3)C(=O)N4c3cc(Cl)cc(Cl)c3)CC2)CC1 [Compound 143] | – | 71 nM |
| C[C@@]1(Cc2ccc(C#N)cc2)C(=O)N(c2cc(Cl)cc(Cl)c2)c2ncc(C(=O)NC3(C(=O)N4CC[C@@H](O)C4)CC3)n21 [Compound 160] | – | 5.9 nM |
| C[C@@]1(Cc2ccc(C#N)cc2)C(=O)N(c2cc(Cl)cc(Cl)c2)c2ncc(C(=O)NC3(C(=O)N4CCC(S(C)(=O)=O)C4)CC3)n21 (stereo partly shown) [Compound 185] | – | 24 nM |
| CCN(C(C)=O)C1CCN(C(=O)C2(NC(=O)c3cnc4n3[C@](C)(Cc3ccc(OC(F)(F)F)cc3)C(=O)N4c3cc(Cl)cc(Cl)c3)CC2)C1 (stereo partly shown) [Compound 187] | – | 22 nM |
| CC(=O)NC1CCCN(C(=O)C2(NC(=O)c3cnc4n3[C@](C)(Cc3ccc(C#N)cc3)C(=O)N4c3cc(Cl)cc(Cl)c3)CC2)C1 (stereo partly shown) [Compound 201] | – | 34 nM |
| C[C@H](NC(=O)c1cnc2n1[C@](C)(Cc1ccc(C#N)cc1)C(=O)N2c1cc(Cl)cc(Cl)c1)C(=O)N1CCC[C@@H]1CO [Compound 215] | – | 39 nM |
| C[C@H](NC(=O)c1cnc2n1[C@](C)(Cc1ccc(C#N)cc1)C(=O)N2c1cc(Cl)cc(Cl)c1)C(=O)NCCN1CCOCC1 [Compound 259] | – | 120 nM |
| C[C@@H](NC(=O)c1cnc2n1[C@](C)(Cc1ccc(C#N)cc1)C(=O)N2c1cc(Cl)cc(Cl)c1)C(=O)Nc1nccs1 [Compound 286] | – | 100 nM |
